# Source: patent publication US11427549B2, “Pyrimidinyloxy benzo-fused compounds as herbicides” (FMC Corporation, priority 2017, dated 2022)
# Key:
# [1] = system: barnyardgrass (Echinochloa crus-galli); test: Test A preemergence, barnyardgrass; type: in vivo; conditions: Echinochloa crus-galli, pre-emergence, 240 h, 0 to 100 scale (0 no effect, 100 complete control), read-out: Plant response rating, Barnyardgrass; for pest or weed control at 31 g/ha: 31 g ai/ha; for pest or weed control at 125 g/ha: 125 g ai/ha
# kochia (Kochia scoparia) [2] = test: Test A preemergence, kochia; type: in vivo; conditions: Bassia scoparia, pre-emergence, 240 h, 0 to 100 scale (0 no effect, 100 complete control), read-out: Plant response rating, Kochia; for pest or weed control at 31 g/ha: 31 g ai/ha; for pest or weed control at 125 g/ha: 125 g ai/ha
# [3] = system: ragweed (common ragweed, Ambrosia elatior); test: Test A preemergence, ragweed; type: in vivo; conditions: Ambrosia artemisiifolia, pre-emergence, 240 h, 0 to 100 scale (0 no effect, 100 complete control), read-out: Plant response rating, Ragweed; for pest or weed control at 31 g/ha: 31 g ai/ha; for pest or weed control at 125 g/ha: 125 g ai/ha
# [4] = system: ryegrass, Italian (Italian ryegrass, Lolium multiflorum); test: Test A preemergence, ryegrass, Italian; type: in vivo; conditions: Lolium multiflorum, pre-emergence, 240 h, 0 to 100 scale (0 no effect, 100 complete control), read-out: Plant response rating, Ryegrass, Italian; for pest or weed control at 31 g/ha: 31 g ai/ha; for pest or weed control at 125 g/ha: 125 g ai/ha
# [5] = system: pigweed (Amaranthus retroflexus); test: Test A preemergence, pigweed; type: in vivo; conditions: Amaranthus retroflexus, pre-emergence, 240 h, 0 to 100 scale (0 no effect, 100 complete control), read-out: Plant response rating, Pigweed; for pest or weed control at 31 g/ha: 31 g ai/ha; for pest or weed control at 125 g/ha: 125 g ai/ha
# [6] = system: barnyardgrass (Echinochloa crus-galli); test: Test A postemergence, barnyardgrass; type: in vivo; conditions: Echinochloa crus-galli, post-emergence, 240 h, 0 to 100 scale (0 no effect, 100 complete control), read-out: Plant response rating, Barnyardgrass; for pest or weed control at 31 g/ha: 31 g ai/ha; for pest or weed control at 125 g/ha: 125 g ai/ha
# kochia (Kochia scoparia) [7] = test: Test A postemergence, kochia; type: in vivo; conditions: Bassia scoparia, post-emergence, 240 h, 0 to 100 scale (0 no effect, 100 complete control), read-out: Plant response rating, Kochia; for pest or weed control at 31 g/ha: 31 g ai/ha; for pest or weed control at 125 g/ha: 125 g ai/ha
# [8] = system: ragweed (common ragweed, Ambrosia elatior); test: Test A postemergence, ragweed; type: in vivo; conditions: Ambrosia artemisiifolia, post-emergence, 240 h, 0 to 100 scale (0 no effect, 100 complete control), read-out: Plant response rating, Ragweed; for pest or weed control at 31 g/ha: 31 g ai/ha; for pest or weed control at 125 g/ha: 125 g ai/ha
# [9] = system: ryegrass, Italian (Italian ryegrass, Lolium multiflorum); test: Test A postemergence, ryegrass, Italian; type: in vivo; conditions: Lolium multiflorum, post-emergence, 240 h, 0 to 100 scale (0 no effect, 100 complete control), read-out: Plant response rating, Ryegrass, Italian; for pest or weed control at 31 g/ha: 31 g ai/ha; for pest or weed control at 125 g/ha: 125 g ai/ha
# [10] = system: pigweed (Amaranthus retroflexus); test: Test A postemergence, pigweed; type: in vivo; conditions: Amaranthus retroflexus, post-emergence, 240 h, 0 to 100 scale (0 no effect, 100 complete control), read-out: Plant response rating, Pigweed; for pest or weed control at 31 g/ha: 31 g ai/ha; for pest or weed control at 125 g/ha: 125 g ai/ha
# [11] = system: wheat (Triticum aestivum); test: Test A postemergence, wheat; type: in vivo; conditions: Triticum aestivum, post-emergence, 240 h, 0 to 100 scale (0 no effect, 100 complete control), read-out: Plant response rating, Wheat; for plant injury at 31 g/ha: 31 g ai/ha; for plant injury at 125 g/ha: 125 g ai/ha
# corn (Zea mays) = test: Test A postemergence, corn; type: in vivo; conditions: Zea mays, post-emergence, 240 h, 0 to 100 scale (0 no effect, 100 complete control); for Corn plant response rating (crop injury, 0 = no effect, 100 = complete kill) at 31 g/ha: 31 g ai/ha; for Corn plant response rating (crop injury, 0 = no effect, 100 = complete kill) at 125 g/ha: 125 g ai/ha
# [12] = system: blackgrass (Alopecurus myosuroides); test: Test A postemergence, blackgrass; type: in vivo; conditions: Alopecurus myosuroides, post-emergence, 240 h, 0 to 100 scale (0 no effect, 100 complete control), read-out: Plant response rating, Blackgrass; for pest or weed control at 31 g/ha: 31 g ai/ha; for pest or weed control at 125 g/ha: 125 g ai/ha
# [13] = system: galium (catchweed bedstraw, Galium aparine); test: Test A postemergence, galium; type: in vivo; conditions: Galium, post-emergence, 240 h, 0 to 100 scale (0 no effect, 100 complete control), read-out: Plant response rating, Galium; for pest or weed control at 31 g/ha: 31 g ai/ha; for pest or weed control at 125 g/ha: 125 g ai/ha
# rice (Oryza sativa) = test: Test B flooded paddy test, rice; conditions: Oryza sativa, read-out: Plant response rating, Rice (0 to 100 scale, 0 is no effect, 100 is complete control)
# [14] = system: ducksalad (Heteranthera limosa); test: Test B flooded paddy test, ducksalad; conditions: Heteranthera limosa, read-out: Plant response rating, Ducksalad (0 to 100 scale, 0 is no effect, 100 is complete control)
# [15] = system: barnyardgrass (Echinochloa crus-galli); test: Test B flooded paddy test, barnyardgrass; conditions: Echinochloa crus-galli, read-out: Plant response rating, Barnyardgrass (0 to 100 scale, 0 is no effect, 100 is complete control)
Compound,pest or weed control at 31 g/ha [1] [%],pest or weed control at 125 g/ha [1] [%],pest or weed control at 31 g/ha (kochia (Kochia scoparia) [2]) [%],pest or weed control at 125 g/ha (kochia (Kochia scoparia) [2]) [%],pest or weed control at 31 g/ha [3] [%],pest or weed control at 125 g/ha [3] [%],pest or weed control at 31 g/ha [4] [%],pest or weed control at 125 g/ha [4] [%],pest or weed control at 31 g/ha [5] [%],pest or weed control at 125 g/ha [5] [%],pest or weed control at 31 g/ha [6] [%],pest or weed control at 125 g/ha [6] [%],pest or weed control at 31 g/ha (kochia (Kochia scoparia) [7]) [%],pest or weed control at 125 g/ha (kochia (Kochia scoparia) [7]) [%],pest or weed control at 31 g/ha [8] [%],pest or weed control at 125 g/ha [8] [%],pest or weed control at 31 g/ha [9] [%],pest or weed control at 125 g/ha [9] [%],pest or weed control at 31 g/ha [10] [%],pest or weed control at 125 g/ha [10] [%],also measured
"O=C1OC(CCCCC(F)(F)F)Cc2c(Oc3ncc(Cl)cn3)cccc21 (stereo not drawn) [Compound 31, 5-[(5-Chloro-2-pyrimidinyl)oxy]-3,4-dihydro-3-(5,5,5-trifluoropentyl)-1H-2-benzopyran-1-one]",0,0,0,0,0,0,0,0,0,0,20,0,10,40,0,0,0,0,40,50,"plant injury at 31 g/ha [11]: 0%; plant injury at 125 g/ha [11]: 0%; Corn plant response rating (crop injury, 0 = no effect, 100 = complete kill) at 31 g/ha (corn (Zea mays)): 0%; Corn plant response rating (crop injury, 0 = no effect, 100 = complete kill) at 125 g/ha (corn (Zea mays)): 10%; pest or weed control at 31 g/ha [12]: 0%; pest or weed control at 125 g/ha [12]: 0%; pest or weed control at 31 g/ha [13]: 0%; pest or weed control at 125 g/ha [13]: 30%; plant injury at 250 g/ha (rice (Oryza sativa)): 0%; pest or weed control at 250 g/ha [14]: 0%; pest or weed control at 250 g/ha [15]: 0%"
"FC(F)(F)CCC1OCCc2cccc(Oc3ncc(Cl)cn3)c21 (stereo not drawn) [Compound 32, 5-Chloro-2-[[3,4-dihydro-1-(3,3,3-trifluoropropyl)-1H-2-benzopyran-8-yl]oxy]pyrimidine]",0,40,0,0,0,0,0,0,0,60,10,20,0,10,0,0,0,0,20,40,"plant injury at 31 g/ha [11]: 0%; plant injury at 125 g/ha [11]: 10%; Corn plant response rating (crop injury, 0 = no effect, 100 = complete kill) at 31 g/ha (corn (Zea mays)): 10%; Corn plant response rating (crop injury, 0 = no effect, 100 = complete kill) at 125 g/ha (corn (Zea mays)): 20%; pest or weed control at 31 g/ha [12]: 10%; pest or weed control at 125 g/ha [12]: 30%; pest or weed control at 31 g/ha [13]: 10%; pest or weed control at 125 g/ha [13]: 20%; plant injury at 250 g/ha (rice (Oryza sativa)): 0%; pest or weed control at 250 g/ha [14]: 95%; pest or weed control at 250 g/ha [15]: 0%"
"O=C1OCc2cccc(Oc3ncc(Cl)cn3)c2C1CCCCC(F)(F)F (stereo not drawn) [Compound 34, 5-[(5-Chloro-2-pyrimidinyl)oxy]-1,4-dihydro-4-(5,5,5-trifluoropentyl)-3H-2-benzopyran-3-one]",0,0,0,0,0,0,0,0,0,0,0,10,20,10,0,0,0,0,10,40,"plant injury at 31 g/ha [11]: 0%; plant injury at 125 g/ha [11]: 10%; Corn plant response rating (crop injury, 0 = no effect, 100 = complete kill) at 31 g/ha (corn (Zea mays)): 10%; Corn plant response rating (crop injury, 0 = no effect, 100 = complete kill) at 125 g/ha (corn (Zea mays)): 20%; pest or weed control at 31 g/ha [12]: 0%; pest or weed control at 125 g/ha [12]: 10%; pest or weed control at 31 g/ha [13]: 20%; pest or weed control at 125 g/ha [13]: 50%; plant injury at 250 g/ha (rice (Oryza sativa)): 0%; pest or weed control at 250 g/ha [14]: 0%; pest or weed control at 250 g/ha [15]: 0%"
